In ChEMBL document CHEMBL5053512, “Discovery and Preclinical Pharmacology of an Oral Bromodomain and Extra-Terminal (BET) Inhibitor Using Scaffold-Hopping and Structure-Guided Drug Design” (J Med Chem, 2021):

Columns and labels:
[1] = Antitumour activity against human JJN3R cells measured after 72 hrs by MTS assay; assay type: functional, cell-based; conditions: JJN-3R
[2] = Metabolic stability in mouse liver microsomes assessed as parent compound remaining at 0.5 uM after 10 mins; assay type: ADME, Microsome; conditions: read-out: Stability
[3] = Cmax in mouse at 30 mg/kg, po; assay type: ADME, organism-based; design: dose 30 mg/kg, route po; conditions: in vivo
[4] = AUC (0 to 7 hrs) in mouse at 30 mg/kg, po; assay type: ADME, organism-based; design: time < 7 hr, dose 30 mg/kg, route po; conditions: in vivo
[5] = Efflux ratio of permeability in human Caco-2 cells; assay type: ADME, cell-based
[6] = target: Bromodomain-containing protein 2 (Homo sapiens, UniProt P25440); assay: Inhibition of human BRD2 measured by TR-FRET assay
Sequence of Bromodomain-containing protein 2 (P25440 whole entry): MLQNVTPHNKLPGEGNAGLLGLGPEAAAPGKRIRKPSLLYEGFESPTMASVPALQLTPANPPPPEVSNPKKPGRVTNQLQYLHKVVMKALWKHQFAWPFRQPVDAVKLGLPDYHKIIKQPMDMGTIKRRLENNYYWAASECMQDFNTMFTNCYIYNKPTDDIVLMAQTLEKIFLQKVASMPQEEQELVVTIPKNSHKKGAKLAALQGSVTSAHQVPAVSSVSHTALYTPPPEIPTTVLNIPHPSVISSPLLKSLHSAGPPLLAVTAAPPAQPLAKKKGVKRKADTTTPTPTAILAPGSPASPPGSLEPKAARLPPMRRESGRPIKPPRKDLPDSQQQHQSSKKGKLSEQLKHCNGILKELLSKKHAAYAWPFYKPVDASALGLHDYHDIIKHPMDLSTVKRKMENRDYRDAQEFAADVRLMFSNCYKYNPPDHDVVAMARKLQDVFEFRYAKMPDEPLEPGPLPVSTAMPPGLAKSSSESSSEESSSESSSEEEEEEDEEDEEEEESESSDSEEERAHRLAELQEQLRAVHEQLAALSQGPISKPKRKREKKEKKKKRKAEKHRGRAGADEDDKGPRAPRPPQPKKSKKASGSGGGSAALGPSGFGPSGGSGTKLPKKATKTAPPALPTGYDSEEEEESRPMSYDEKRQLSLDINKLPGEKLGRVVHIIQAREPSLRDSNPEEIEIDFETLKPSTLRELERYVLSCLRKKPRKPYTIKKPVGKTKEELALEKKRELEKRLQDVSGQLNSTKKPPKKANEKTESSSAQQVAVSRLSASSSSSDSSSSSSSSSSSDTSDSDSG

[7] = target: Bromodomain-containing protein 3 (Homo sapiens, UniProt Q15059); assay: Inhibition of human BRD3 measured by TR-FRET assay
Cytochrome P450 2D6 = Cytochrome P450 2D6 (Homo sapiens, UniProt P10635); assay: Inhibition of CYP2D6 (unknown origin); assay type: ADME
Sequence of Cytochrome P450 2D6 (P10635 whole entry): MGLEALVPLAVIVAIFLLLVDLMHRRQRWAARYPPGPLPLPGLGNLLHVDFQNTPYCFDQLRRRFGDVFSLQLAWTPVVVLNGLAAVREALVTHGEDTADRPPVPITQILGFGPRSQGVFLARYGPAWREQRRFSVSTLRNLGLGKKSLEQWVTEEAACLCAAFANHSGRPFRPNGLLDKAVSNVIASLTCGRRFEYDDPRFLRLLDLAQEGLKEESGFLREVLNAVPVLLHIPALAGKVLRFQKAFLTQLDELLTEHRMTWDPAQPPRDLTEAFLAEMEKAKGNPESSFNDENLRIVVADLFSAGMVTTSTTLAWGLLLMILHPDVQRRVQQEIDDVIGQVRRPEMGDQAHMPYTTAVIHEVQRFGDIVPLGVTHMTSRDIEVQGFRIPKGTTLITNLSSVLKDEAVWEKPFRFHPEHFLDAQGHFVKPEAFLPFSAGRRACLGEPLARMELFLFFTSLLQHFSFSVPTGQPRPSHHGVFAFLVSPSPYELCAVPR

[8] = target: T1, Voltage-gated inwardly rectifying potassium channel KCNH2 (Homo sapiens, UniProt Q12809); assay: Inhibition of human ERG by flux assay
T1 sequence (Q12809 whole entry): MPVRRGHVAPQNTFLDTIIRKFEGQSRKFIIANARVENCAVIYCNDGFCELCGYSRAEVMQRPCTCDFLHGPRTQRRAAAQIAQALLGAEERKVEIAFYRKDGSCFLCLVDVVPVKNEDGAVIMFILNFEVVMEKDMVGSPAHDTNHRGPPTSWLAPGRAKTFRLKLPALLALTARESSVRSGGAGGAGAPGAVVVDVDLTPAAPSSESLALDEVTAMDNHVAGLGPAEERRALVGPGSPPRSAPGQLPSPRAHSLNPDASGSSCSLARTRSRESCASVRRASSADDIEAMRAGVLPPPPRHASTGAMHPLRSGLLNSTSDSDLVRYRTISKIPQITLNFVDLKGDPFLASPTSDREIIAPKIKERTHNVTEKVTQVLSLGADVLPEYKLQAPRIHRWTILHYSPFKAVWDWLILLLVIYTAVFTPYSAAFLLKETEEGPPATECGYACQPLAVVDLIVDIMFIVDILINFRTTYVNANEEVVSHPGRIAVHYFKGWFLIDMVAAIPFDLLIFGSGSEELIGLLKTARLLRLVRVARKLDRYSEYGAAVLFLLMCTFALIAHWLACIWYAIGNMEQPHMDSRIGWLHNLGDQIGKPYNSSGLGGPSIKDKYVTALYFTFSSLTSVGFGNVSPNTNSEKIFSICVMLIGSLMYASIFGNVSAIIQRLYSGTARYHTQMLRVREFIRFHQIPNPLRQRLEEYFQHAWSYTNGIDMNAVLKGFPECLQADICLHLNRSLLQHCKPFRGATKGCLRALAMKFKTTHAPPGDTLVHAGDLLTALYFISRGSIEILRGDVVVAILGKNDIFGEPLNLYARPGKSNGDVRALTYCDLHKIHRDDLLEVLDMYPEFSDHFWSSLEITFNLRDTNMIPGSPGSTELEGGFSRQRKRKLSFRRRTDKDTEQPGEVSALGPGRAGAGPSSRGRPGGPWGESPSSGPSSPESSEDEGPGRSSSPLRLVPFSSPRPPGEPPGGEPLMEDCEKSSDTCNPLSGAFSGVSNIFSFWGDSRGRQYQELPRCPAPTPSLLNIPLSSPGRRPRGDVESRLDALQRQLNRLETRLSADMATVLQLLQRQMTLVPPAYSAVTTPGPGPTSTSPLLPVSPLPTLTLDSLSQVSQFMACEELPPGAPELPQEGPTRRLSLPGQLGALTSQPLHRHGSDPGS

[9] = target: T1, Voltage-gated inwardly rectifying potassium channel KCNH2; assay: Inhibition of human ERG by patch-clamp assay
[10] = Elimination half life in mouse at 1.75 mg/kg, iv; assay type: ADME, organism-based; conditions: in vivo, read-out: beta t1/2 (converted)
[11] = Elimination half life in rat at 1 mg/kg, iv; assay type: ADME, organism-based; conditions: in vivo, read-out: beta t1/2 (converted)
[12] = Total plasma clearance in mouse at 1.75 mg/kg, iv; assay type: ADME, organism-based
[13] = Total plasma clearance in dog at 0.1 mg/kg, iv; assay type: ADME, organism-based, Canis lupus familiaris
[14] = Total plasma clearance in monkey at 0.1 mg/kg, iv; assay type: ADME, organism-based, Macaca mulatta; conditions: rhesus monkey
[15] = Volume of distribution at steady state in mouse at 1.75 mg/kg, iv; assay type: ADME, organism-based; conditions: in vivo, read-out: Vdss
[16] = Volume of distribution at steady state in monkey at 0.1 mg/kg, iv; assay type: ADME, organism-based, Macaca mulatta; conditions: rhesus monkey, in vivo, read-out: Vdss
NCI-H211 [17] = assay: Anticancer activity against human NCI-H211 cells; assay type: functional, cell-based
HCC95 = assay: Anticancer activity against human HCC95 cells; assay type: functional, cell-based
NCI-H2170 = assay: Anticancer activity against human NCI-H2170 cells; assay type: functional, cell-based
NCI-H441 = assay: Anticancer activity against human NCI-H441 cells; assay type: functional, cell-based
[18] = Anticancer activity against human HCC15 cells; assay type: functional, cell-based
NCI-H1355 = assay: Anticancer activity against human NCI-H1355 cells; assay type: functional, cell-based
NCI-H1623 = assay: Anticancer activity against human NCI-H1623 cells; assay type: functional, cell-based
SK-MES-1 = assay: Anticancer activity against human SK-MES-1 cells; assay type: functional, cell-based
NCI-H211 [19] = assay: Anticlonogenic activity against human NCI-H211 cells; assay type: functional, cell-based
[20] = Antitumour activity against human LG0787F cells xenografted in NSG mouse assessed as tumour growth inhibition at 1 mg/kg/day, po bid; assay type: functional; conditions: read-out: TGI
[21] = Antitumour activity against human LG0787F cells xenografted in NSG mouse assessed as tumour growth inhibition at 1 mg/kg/day, po qd; assay type: functional; conditions: read-out: TGI
[22] = AUC in human LG0787F cells xenografted in NSG mouse at 1 mg/kg/day, po qd; assay type: ADME, organism-based; design: dose 1 mg/kg/day, route po; conditions: in vivo
[23] = Cmax in human LG0787F cells xenografted in NSG mouse at 1 mg/kg/day, po qd; assay type: ADME, organism-based; design: dose 1 mg/kg/day, route po; conditions: in vivo
[24] = Antitumour activity against human LG0787F cells xenografted in NSG mouse assessed as tumour growth inhibition at 0.25 mg/kg/day, po bid; assay type: functional; conditions: read-out: TGI
[25] = Antitumour activity against human LG0787F cells xenografted in po dosed NSG mouse assessed as minimum effective concentration; assay type: functional; conditions: dose 0.25 mg/kg/day
[26] = Antitumour activity against human LG0787F cells xenografted in po dosed NSG mouse assessed as minimum effective concentration measured after 12 hrs; assay type: functional; conditions: dose 0.25 mg/kg/day
[27] = Drug concentration at steady state in human LG0787F cells xenografted in NSG mouse infused continuously over 6 days using Alzet pump; assay type: ADME; conditions: iv, 144 h, time 6 day
[28] = Antitumour activity against human LG0787F cells xenografted in NSG mouse at 1 mg/kg/day infused continuously over 6 days using Alzet pump; assay type: functional; conditions: 144 h, time 6 day, read-out: TGI
[29] = Antitumour activity against patient-derived human PAT81 cells xenografted in mouse model at 1.6 mg/kg, po bid, 5 days on and 2 days off for 2 weeks; assay type: functional; conditions: PAT81, 120 h, time 5 day, read-out: TGI
[30] = Antitumour activity against patient-derived human LG0787F cells xenografted in mouse model at 1.6 mg/kg, po bid, 5 days on and 2 days off for 2 weeks; assay type: functional; conditions: 120 h, time 5 day, read-out: TGI
[31] = Antitumour activity against patient-derived human BR1977F cells xenografted in mouse model at 1.6 mg/kg, po bid, 5 days on and 2 days off for 2 weeks; assay type: functional; conditions: 120 h, time 5 day, read-out: TGI
[32] = Antitumour activity against patient-derived human PAT130 cells xenografted in mouse model at 1.6 mg/kg, po bid, 5 days on and 2 days off for 2 weeks; assay type: functional; conditions: PAT130, 120 h, time 5 day, read-out: TGI
[33] = Antitumour activity against patient-derived human BR1367F cells xenografted in mouse model at 1.6 mg/kg, po bid, 5 days on and 2 days off for 2 weeks; assay type: functional; conditions: 120 h, time 5 day, read-out: TGI
[34] = Antitumour activity against patient-derived human PAT129 cells xenografted in mouse model at 1.6 mg/kg, po bid, 5 days on and 2 days off for 2 weeks; assay type: functional; conditions: PAT129, 120 h, time 5 day, read-out: TGI
[35] = Antitumour activity against patient-derived human PAT150 cells xenografted in mouse model at 1.6 mg/kg, po bid, 5 days on and 2 days off for 2 weeks; assay type: functional; conditions: PAT150, 120 h, time 5 day, read-out: TGI
[36] = Antitumour activity against patient-derived human BR0869F cells xenografted in mouse model at 1.6 mg/kg, po bid, 5 days on and 2 days off for 2 weeks; assay type: functional; conditions: 120 h, time 5 day, read-out: TGI
[37] = Antitumour activity against patient-derived human LGO52.0F/Cis/R48 cells xenografted in mouse model at 1.6 mg/kg, po bid, 5 days on and 2 days off for 2 weeks; assay type: functional; conditions: LGO52.0F/Cis/R48, 120 h, time 5 day, read-out: TGI
[38] = Antitumour activity against patient-derived human PAT78 cells xenografted in mouse model at 1.6 mg/kg, po bid, 5 days on and 2 days off for 2 weeks; assay type: functional; conditions: PAT78, 120 h, time 5 day, read-out: TGI
[39] = Antitumour activity against patient-derived human PAT157 cells xenografted in mouse model at 1.6 mg/kg, po bid, 5 days on and 2 days off for 2 weeks; assay type: functional; conditions: PAT157, 120 h, time 5 day, read-out: TGI
[40] = Antitumour activity against patient-derived human PAT160 cells xenografted in mouse model at 1.6 mg/kg, po bid, 5 days on and 2 days off for 2 weeks; assay type: functional; conditions: PAT160, 120 h, time 5 day, read-out: TGI
[41] = target: CREB-binding protein (Homo sapiens) (UniProt Q92793)
Sequence of CREB-binding protein (Homo sapiens) (Q92793 2-2442 limits assumed): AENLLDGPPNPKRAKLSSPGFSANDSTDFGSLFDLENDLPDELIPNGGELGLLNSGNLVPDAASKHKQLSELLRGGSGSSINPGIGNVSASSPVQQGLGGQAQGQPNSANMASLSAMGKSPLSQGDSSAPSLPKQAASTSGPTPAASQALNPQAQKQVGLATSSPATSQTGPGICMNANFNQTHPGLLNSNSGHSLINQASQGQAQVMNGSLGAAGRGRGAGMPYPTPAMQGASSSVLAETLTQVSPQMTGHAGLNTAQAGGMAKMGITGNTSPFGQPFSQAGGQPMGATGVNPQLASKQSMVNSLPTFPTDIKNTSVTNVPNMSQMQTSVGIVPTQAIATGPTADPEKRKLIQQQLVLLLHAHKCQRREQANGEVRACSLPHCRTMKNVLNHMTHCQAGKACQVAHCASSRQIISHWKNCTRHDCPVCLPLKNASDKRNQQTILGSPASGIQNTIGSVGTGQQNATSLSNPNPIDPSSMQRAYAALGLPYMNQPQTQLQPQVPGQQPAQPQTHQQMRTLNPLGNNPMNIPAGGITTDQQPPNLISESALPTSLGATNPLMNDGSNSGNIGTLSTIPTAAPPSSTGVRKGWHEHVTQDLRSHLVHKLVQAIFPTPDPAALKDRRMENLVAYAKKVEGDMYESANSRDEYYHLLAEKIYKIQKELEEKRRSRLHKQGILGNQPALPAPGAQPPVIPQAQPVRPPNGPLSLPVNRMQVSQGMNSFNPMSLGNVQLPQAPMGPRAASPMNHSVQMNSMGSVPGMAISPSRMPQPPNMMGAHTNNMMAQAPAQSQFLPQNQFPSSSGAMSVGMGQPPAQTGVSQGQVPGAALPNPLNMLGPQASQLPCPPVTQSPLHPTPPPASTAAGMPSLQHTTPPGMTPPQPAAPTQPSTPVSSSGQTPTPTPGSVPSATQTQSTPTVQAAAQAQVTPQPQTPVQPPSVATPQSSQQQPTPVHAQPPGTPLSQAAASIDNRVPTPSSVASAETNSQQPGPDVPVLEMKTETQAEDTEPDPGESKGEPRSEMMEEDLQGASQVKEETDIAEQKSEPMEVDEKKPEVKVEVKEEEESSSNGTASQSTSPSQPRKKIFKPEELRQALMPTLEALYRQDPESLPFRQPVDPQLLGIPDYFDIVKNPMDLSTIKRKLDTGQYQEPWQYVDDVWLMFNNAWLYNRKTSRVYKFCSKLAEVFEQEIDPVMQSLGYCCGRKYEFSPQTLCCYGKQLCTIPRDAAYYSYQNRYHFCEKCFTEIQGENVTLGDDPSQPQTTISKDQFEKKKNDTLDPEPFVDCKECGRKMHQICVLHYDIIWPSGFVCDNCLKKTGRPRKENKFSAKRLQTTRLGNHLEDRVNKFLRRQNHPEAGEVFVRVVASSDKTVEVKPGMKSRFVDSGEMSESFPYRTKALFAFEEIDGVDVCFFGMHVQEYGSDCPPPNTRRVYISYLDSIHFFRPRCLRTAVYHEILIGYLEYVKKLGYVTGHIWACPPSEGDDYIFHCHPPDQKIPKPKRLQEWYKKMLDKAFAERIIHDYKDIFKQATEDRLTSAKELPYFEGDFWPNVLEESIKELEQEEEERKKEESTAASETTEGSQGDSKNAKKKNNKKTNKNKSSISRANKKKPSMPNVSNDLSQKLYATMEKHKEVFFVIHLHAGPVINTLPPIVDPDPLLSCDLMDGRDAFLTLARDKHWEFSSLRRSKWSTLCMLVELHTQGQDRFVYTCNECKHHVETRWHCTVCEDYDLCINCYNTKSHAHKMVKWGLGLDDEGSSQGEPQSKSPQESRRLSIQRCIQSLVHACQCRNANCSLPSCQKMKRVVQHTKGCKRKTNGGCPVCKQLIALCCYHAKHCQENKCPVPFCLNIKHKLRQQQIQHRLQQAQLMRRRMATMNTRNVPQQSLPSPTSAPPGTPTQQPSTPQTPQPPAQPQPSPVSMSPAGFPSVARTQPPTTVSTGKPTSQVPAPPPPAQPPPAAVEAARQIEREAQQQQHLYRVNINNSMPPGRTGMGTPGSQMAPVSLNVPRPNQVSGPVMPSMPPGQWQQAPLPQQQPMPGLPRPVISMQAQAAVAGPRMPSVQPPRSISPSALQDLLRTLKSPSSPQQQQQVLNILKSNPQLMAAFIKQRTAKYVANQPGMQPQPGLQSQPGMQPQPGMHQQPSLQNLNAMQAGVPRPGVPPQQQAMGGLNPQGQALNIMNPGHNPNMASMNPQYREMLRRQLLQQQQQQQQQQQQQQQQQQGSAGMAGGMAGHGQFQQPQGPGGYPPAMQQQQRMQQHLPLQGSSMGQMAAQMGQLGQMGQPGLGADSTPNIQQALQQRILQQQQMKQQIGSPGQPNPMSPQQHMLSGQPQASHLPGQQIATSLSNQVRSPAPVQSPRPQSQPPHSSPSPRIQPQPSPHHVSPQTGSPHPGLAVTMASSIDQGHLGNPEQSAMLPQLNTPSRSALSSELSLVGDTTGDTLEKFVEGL
Description: Binding affinity to CREBBP (unknown origin) assessed as change in melting temperature of protein

remaining at 10 min, 0.5 µM [2]: 66%
Cmax [3]: 11900 nM
AUC(0-t) at 7 h [4]: 49.6 µM·h
efflux ratio [5]: 2.6
IC50 [6]: 1.4 nM
IC50 [7]: 1.1 nM
IC50 (Cytochrome P450 2D6): > 20000 nM
half-life [10]: 1.8 h
half-life [11]: 4.2 h
clearance [12]: 12 mL/min/kg
clearance [13]: 15 mL/min/kg
clearance [14]: 32 mL/min/kg
Vd [15]: 1.9 L/kg
Vd [16]: 4.2 L/kg
IC50 (NCI-H211 [17]): 0.3 nM
IC50 (HCC95): 8.1 nM
IC50 (NCI-H2170): 91 nM
IC50 (NCI-H441): 118 nM
IC50 [18]: 365 nM
IC50 (NCI-H1355): > 500 nM
IC50 (NCI-H1623): > 500 nM
IC50 (SK-MES-1): > 500 nM
IC50 (NCI-H211 [19]): 5.6 nM
AUC [22]: 0.6 µM·h
Cmax [23]: 150 nM
Css [27]: 17 nM
ΔTm [41]: 5.6 °C
Structure (SMILES): Cc1nnn(C)c1-c1cnc2c3ccc(C(C)(C)O)cc3n([C@H](c3ccccc3)C3CCOCC3)c2c1 [EZOBRESIB]
IC50 [1]: 3.6 nM
IC50 [8]: > 80000 nM
IC50 [9]: 28000 nM
inhibition in vivo at 1 mg/kg/day [20]: 70%
inhibition in vivo at 1 mg/kg/day [21]: 50%
inhibition in vivo at 0.25 mg/kg/day [24]: 46%
MEC [25]: 0.03 µM
MEC [26]: 10 nM
inhibition in vivo at 1 mg/kg/day [28]: 78%
inhibition in vivo at 1.6 mg/kg [29]: 112%
inhibition in vivo at 1.6 mg/kg [30]: 110%
inhibition in vivo at 1.6 mg/kg [31]: 88%
inhibition in vivo at 1.6 mg/kg [32]: 76%
inhibition in vivo at 1.6 mg/kg [33]: 68%
inhibition in vivo at 1.6 mg/kg [34]: 65%
inhibition in vivo at 1.6 mg/kg [35]: 62%
inhibition in vivo at 1.6 mg/kg [36]: 56%
inhibition in vivo at 1.6 mg/kg [37]: 50%
inhibition in vivo at 1.6 mg/kg [38]: 47%
inhibition in vivo at 1.6 mg/kg [39]: 23%
inhibition in vivo at 1.6 mg/kg [40]: 9%
